Data as given in US20120065066A1, “NOVEL HERBICIDES” (SYNGENTA CROP PROTECTION LLC, priority 2009, published 2012).

Columns and labels:
Assay type in all cases: in vivo
[1] = tested on: Echinochloa crus-galli (ECHCG); assay: Test Example 1, pre-emergence herbicidal test; conditions: 480 h, evaluated 20 days later, 100=total damage to plant, 0=no damage to plant
Description: (§1) Monocotyledonous and dicotyledonous test plants were sown in standard soil in pots. After cultivation for one day (pre-emergence) or after 10 days cultivation (post-emergence) under controlled conditions in a glasshouse, the plants were sprayed with an aqueous spray solution derived from the formulation of the technical active ingredient in 0.6 ml acetone and 45 ml formulation solution containing 10.6% Emulsogen EL (Registry number 61791-12-6), 42.2% N-methylpyrrolidone, 42.2% dipropylene glycol monomethyl ether (Registry number 34590-94-8) and 0.2% X-77 (Registry number 11097-66-8). The test plants were then grown in a greenhouse under optimum conditions until, 15 days later for post-emergence and 20 days for pre-emergence, the test was evaluated (100=total damage to plant; 0=no damage to plant). Test Plants: Lolium perenne (LOLPE), Setaria faberi (SETFA), Digitaria sanguinalis (DIGSA), Alopecurus myosuroides (ALOMY), Echinochloa crus-galli (ECHCG) and Avena fatua (AVEFA), Pre-Emergence Data: […]

[2] = tested on: Digitaria sanguinalis (DIGSA); assay: Test Example 1, pre-emergence herbicidal test; conditions: 480 h, evaluated 20 days later, 100=total damage to plant, 0=no damage to plant
Description: as §1

Lolium perenne (LOLPE) [3] = assay: Test Example 1, pre-emergence herbicidal test; conditions: 480 h, evaluated 20 days later, 100=total damage to plant, 0=no damage to plant
Description: as §1

Avena fatua (AVEFA) [4] = assay: Test Example 1, pre-emergence herbicidal test; conditions: 480 h, evaluated 20 days later, 100=total damage to plant, 0=no damage to plant
Description: as §1

[5] = tested on: Alopecurus myosuroides (ALOMY); assay: Test Example 1, pre-emergence herbicidal test; conditions: 480 h, evaluated 20 days later, 100=total damage to plant, 0=no damage to plant
Description: as §1

Setaria faberi (SETFA) [6] = assay: Test Example 1, pre-emergence herbicidal test; conditions: 480 h, evaluated 20 days later, 100=total damage to plant, 0=no damage to plant, read-out: SEFTA damage to plant
Description: as §1

[7] = tested on: Echinochloa crus-galli (ECHCG); assay: Test Example 1, post-emergence herbicidal test; conditions: 360 h, evaluated 15 days later, 100=total damage to plant, 0=no damage to plant
Description: as §1, with “Post-Emergence” for “Pre-Emergence”

[8] = tested on: Digitaria sanguinalis (DIGSA); assay: Test Example 1, post-emergence herbicidal test; conditions: 360 h, evaluated 15 days later, 100=total damage to plant, 0=no damage to plant
Description: as §1, with “Post-Emergence” for “Pre-Emergence”

Lolium perenne (LOLPE) [9] = assay: Test Example 1, post-emergence herbicidal test; conditions: 360 h, evaluated 15 days later, 100=total damage to plant, 0=no damage to plant
Description: as §1, with “Post-Emergence” for “Pre-Emergence”

Avena fatua (AVEFA) [10] = assay: Test Example 1, post-emergence herbicidal test; conditions: 360 h, evaluated 15 days later, 100=total damage to plant, 0=no damage to plant
Description: as §1, with “Post-Emergence” for “Pre-Emergence”

[11] = tested on: Alopecurus myosuroides (ALOMY); assay: Test Example 1, post-emergence herbicidal test; conditions: 360 h, evaluated 15 days later, 100=total damage to plant, 0=no damage to plant
Description: as §1, with “Post-Emergence” for “Pre-Emergence”

Setaria faberi (SETFA) [12] = assay: Test Example 1, post-emergence herbicidal test; conditions: 360 h, evaluated 15 days later, 100=total damage to plant, 0=no damage to plant, read-out: SEFTA damage to plant
Description: as §1, with “Post-Emergence” for “Pre-Emergence”

Row | Structure (SMILES) | pest or weed control at 250 g/ha [1] | pest or weed control at 250 g/ha [2] | pest or weed control at 250 g/ha (Lolium perenne (LOLPE) [3]) | pest or weed control at 250 g/ha (Avena fatua (AVEFA) [4]) | pest or weed control at 250 g/ha [5] | pest or weed control at 250 g/ha (Setaria faberi (SETFA) [6]) | pest or weed control at 125 g/ha [7] | pest or weed control at 125 g/ha [8] | pest or weed control at 125 g/ha (Lolium perenne (LOLPE) [9]) | pest or weed control at 125 g/ha (Avena fatua (AVEFA) [10]) | pest or weed control at 125 g/ha [11] | pest or weed control at 125 g/ha (Setaria faberi (SETFA) [12])
1 | CCc1cc(C)cc(CC)c1C1=C(O)[C@H]2[C@H]3CC[C@H](C3)[C@H]2C1=O [Compound T49] | 100% | 100% | 100% | 70% | 100% | 100% | 100% | 100% | 100% | 80% | 100% | 100%
2 | CCc1cc(C)cc(CC)c1C1=C(O)[C@H]2[C@H]3C=C[C@](OC)(CC3)[C@H]2C1=O [Compound T55] | 100% | 100% | 100% | 70% | 100% | 100% | 100% | 80% | 70% | 80% | 80% | 90%
3 | CCc1ccc(-c2ccc(Cl)cc2)cc1C1=C(O)[C@H]2[C@H]3C=C[C@](OC)(CC3)[C@H]2C1=O (racemic) [Compound T8, rac-(3aS,4R,7R,7aS)-2-(4′-chloro-4-ethylbiphenyl-3-yl)-4-methoxy-3a,4,7,7a-tetrahydro-4,7-ethanoindene-1,3-dione] | 100% | 100% | 70% | 10% | 60% | 90% | 100% | 100% | 0% | 10% | 70% | 80%
4 | CCc1ccc(-c2ccc(Cl)cc2)cc1C1=C(O)[C@H]2C3CCC(C3=C(C)C)[C@H]2C1=O (stereo partly drawn) [Compound T21] | 30% | 50% | 40% | 20% | 60% | 60% | 0% | 20% | 0% | 20% | 20% | 20%
5 | CCc1cc(C)cc(CC)c1C1=C(O)[C@@H]2[C@H](C1=O)[C@H]1CC[C@@H]2C1=C(C)C [Compound T52] | 90% | 80% | 70% | 60% | 50% | 100% | 80% | 70% | 50% | 20% | 90% | 80%
6 | CCc1cc(C)cc(CC)c1C1=C(O)[C@H]2[C@@H]3CC[C@@H](C(=O)C3)[C@H]2C1=O [Compound T54] | 70% | 80% | 90% | 70% | 70% | 80% | 80% | 80% | 50% | 60% | 60% | 80%
7 | Cc1cc(C)c(C2=C(O)[C@H]3[C@H]4CC[C@H](CC4)[C@H]3C2=O)c(C)c1 [Compound T47] | 70% | 100% | 80% | 50% | 90% | 100% | 60% | 80% | 40% | 40% | 0% | 60%
8 | Cc1cc(C)c(C2=C(O)[C@@H]3[C@H](C2=O)[C@@H]2C=C[C@H]3CC2)c(C)c1 [Compound T53] | 70% | 80% | 100% | 40% | 70% | 100% | 60% | 50% | 30% | 0% | 20% | 20%
9 | Cc1cc(C)c(C2=C(O)[C@H]3[C@H]4CC[C@H](C4)[C@H]3C2=O)c(C)c1 (racemic) [Compound T50, rac-(5S,6S,7R)-2-(2,4,6-trimethylphenyl)hexahydro-4,7-methanoindene-1,3-dione] | 70% | 80% | 100% | 50% | 70% | 100% | 20% | 30% | 30% | 10% | 30% | 0%
10 | CCc1cc(C)cc(CC)c1C1=C(O)[C@@H]2[C@H](C1=O)[C@@H]1CC[C@H]2C1=C(C)C [Compound T51] | 90% | 80% | 100% | 60% | 60% | 80% | 10% | 30% | 50% | 0% | 30% | 0%
11 | CCc1cc(C)cc(CC)c1C1=C(O)[C@H]2[C@H]3CC[C@H](CC3)[C@H]2C1=O (racemic) [Compound T48, rac-(7R,8S)-2-(2,6-diethyl-4-methylphenyl)hexahydro-4,7-ethanoindene-1,3-dione] | 100% | 100% | 100% | 70% | 100% | 100% | 90% | 100% | 100% | 70% | 80% | 80%
